Source: article PMC2248282 (Chemmedchem, 2007)

Experiments:
T. b. brucei (Bs427) = assay: In vitro trypanocidal assay; assay type: cell-based; details: for activity against T. b. brucei (in words): in vitro; for IC50: Trypanosoma brucei, read-out: IC50 Bs427
[1] = LC-MS stability in phosphate buffer saline at 37°C; assay type: physicochemical
[2] = system: human embryonic kidney cells (HEK 293T); assay: Cytotoxicity to mammalian cells; assay type: cell-based; details: read-out: IC50 HEK 293T
[3] = phosphate buffered saline, pH 7.2

Molecule | activity against T. b. brucei (in words) (T. b. brucei (Bs427)) | half-life ([1]; PBS (pH 7.2) at 37°C, LC-MS, disappearance of molecular ion) | IC50 (T. b. brucei (Bs427)) | IC50 [2] | half-life [1, 3] | half-life at 1 mg/mL [1, 3]
2,2-Dimethyl-thiopropionic acid S-(2-{[5-(2,4-dimethoxy-benzyloxycarbamoyl)-2,2-dimethyl-[1,3]dioxolan-4-ylmethoxy]-phenoxy-phosphoryloxy}-ethyl) ester [Compound 3d] | highest activity | 2.14 h |  |  |  | 
CC1(C)OC(COP(=O)(OCCSC(=O)C(C)(C)C)OCCSC(=O)C(C)(C)C)C(C(=O)NO)O1 (stereo not drawn) [Compound 3a, 2,2-Dimethyl-thiopropionic acid S-{2-[[2-(2,2-dimethyl-propionylsulfanyl)-ethoxy]-(5-hydroxycarbamoyl-2,2-dimethyl-[1,3]dioxolan-4-ylmethoxy)-phosphoryloxy]-ethyl} ester] | highest activity |  | 4.23 µM | > 200 µM |  | 
COC(=O)C(C)NP(=O)(OCC1OC(C)(C)OC1C(=O)NO)Oc1ccccc1 (stereo not drawn) [Compound 3b, 2-[(5-Hydroxycarbamoyl-2,2-dimethyl-[1,3]dioxolan-4-ylmethoxy)-phenoxy-phosphorylamino]-propionic acid methyl ester] | highest activity |  | 6.95 µM | > 200 µM | 5 h | 
COC(=O)C(C)NP(=O)(OCC1OC(C)(C)OC1C(=O)NO)Oc1ccc([N+](=O)[O-])cc1 (stereo not drawn) [Compound 3c, 2-[(5-Hydroxycarbamoyl-2,2-dimethyl-[1,3]dioxolan-4-ylmethoxy)-(4-nitro-phenoxy)-phosphorylamino]-propionic acid methyl ester] | moderate activities |  | 43.8 µM | > 200 µM |  | 51 min
CC1(C)OC(COP(=O)(OCOC(=O)C(C)(C)C)OCOC(=O)C(C)(C)C)C(C(=O)NO)O1 (stereo not drawn) [Compound 3e, (5-(hydroxycarbamoyl)-2,2-dimethyl-1,3-dioxolan-4-yl)methyl bis((pivaloyloxy)methyl) phosphate] | moderate activities |  | 20.2 µM | > 200 µM |  | 31.8 min
COc1ccc(CONC(=O)C2OC(C)(C)OC2COP(=O)(OCCSC(=O)C(C)(C)C)OCCSC(=O)C(C)(C)C)c(OC)c1 (stereo not drawn) [Compound 24, 2,2-dimethyl-thiopropionic acid S-(2-{[5-(2,4-dimethoxy-benzyloxycarbamoyl)-2,2-dimethyl-[1,3]dioxolan-4-ylmethoxy]-[2-(2,2-dimethyl-propionylsulfanyl)-ethoxy]-phosphoryloxy}-ethyl) ester] | improved activity |  | 25 µM | > 200 µM |  | 
COc1ccc(CONC(=O)C2OC(C)(C)OC2COP(=O)(OCCSC(=O)C(C)(C)C)Oc2ccccc2)cc1 (stereo not drawn) [Compound 26a, 2,2-Dimethyl-thiopropionic acid S-(2-{[5-(4-methoxy-benzyloxycarbamoyl)-2,2-dimethyl-[1,3]dioxolan-4-ylmethoxy]-phenoxy-phosphoryloxy}-ethyl) ester] |  |  | > 100 µM | > 200 µM |  | 
COc1ccc(CONC(=O)C2OC(C)(C)OC2COP(=O)(OCCSC(=O)C(C)(C)C)Oc2ccccc2)c(OC)c1 (stereo not drawn) [Compound 26b, 2,2-Dimethyl-thiopropionic acid S-(2-{[5-(2,4-dimethoxy-benzyloxycarbamoyl)-2,2-dimethyl-[1,3]dioxolan-4-ylmethoxy]-phenoxy-phosphoryloxy}-ethyl) ester] |  |  | > 100 µM | > 200 µM |  | 
